For the test, the target named is T1, human M1 receptor (Homo sapiens, UniProt P11229).
T1 sequence (P11229 1-460): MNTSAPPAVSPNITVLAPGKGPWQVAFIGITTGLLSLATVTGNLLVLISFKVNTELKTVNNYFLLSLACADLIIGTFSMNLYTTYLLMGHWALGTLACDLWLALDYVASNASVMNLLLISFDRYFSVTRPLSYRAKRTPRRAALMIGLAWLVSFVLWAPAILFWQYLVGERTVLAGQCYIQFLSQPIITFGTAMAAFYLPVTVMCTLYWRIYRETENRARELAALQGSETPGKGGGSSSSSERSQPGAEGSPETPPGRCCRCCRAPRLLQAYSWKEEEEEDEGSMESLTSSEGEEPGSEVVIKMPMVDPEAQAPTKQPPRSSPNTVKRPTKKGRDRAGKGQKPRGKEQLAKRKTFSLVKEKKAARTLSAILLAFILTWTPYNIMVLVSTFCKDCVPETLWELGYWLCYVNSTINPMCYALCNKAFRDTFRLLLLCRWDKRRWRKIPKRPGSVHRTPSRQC
Kind of test: In vitro functional assay of muscarinic acetylcholine receptor activity (aequorin calcium flux, reversal of EC80 acetylcholine response). The note with it: CHO-K1 cells stably expressing human M1 receptor with aequorin; acetylcholine at EC80; calcium flux (luminescence); read-out: M1 IC50. The test is classed as cell-based. The method in brief: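 CHO-K1 cells expressing human M1 and aequorin, loaded with 5 μM coelenterazine for 4 h, preincubated with compound 30 min at room temperature, then challenged with EC80 acetylcholine.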

The structures appear in SMILES notation. pIC50: −log10 of the molar value.

Experimental findings from patent US12565501B2, “Muscarinic acetylcholine M1 receptor antagonists” (Contineum Therapeutics, Inc., priority 2019, dated 2026) are described below.

With `COc1cc(C2(OCC(=O)N3CC4CCC(C3)N4c3ccc(C#N)cn3)CC2)ccc1F` [Example 224, 6-(3-(2-(1-(4-fluoro-3-methoxyphenyl)cyclopropoxy)acetyl)-3,8-diazabicyclo[3.2.1]octan-8-yl)nicotinonitrile], the negative logarithm of the IC50 (pIC50) was 7.00 to 8.00.
In the case of `COc1ccc(C2(OCC(=O)N3CC4CCC(C3)N4c3ccc(C#N)cn3)CC2)cc1OC` [Example 225, 6-(3-(2-(1-(3,4-dimethoxyphenyl)cyclopropoxy)acetyl)-3,8-diazabicyclo[3.2.1]octan-8-yl)nicotinonitrile] it was 6.00 to 7.00; in that of `COc1ccc(Br)c(C2(OCC(=O)N3CC4CCC(C3)N4c3ccc(C#N)cn3)CC2)c1` [Example 226, 6-(3-(2-(1-(2-bromo-5-methoxyphenyl)cyclopropoxy)acetyl)-3,8-diazabicyclo[3.2.1]octan-8-yl)nicotinonitrile], > 8.00; in that of `N#Cc1ccc(N2C3CCC2CN(C(=O)COC2(c4ccncc4)CC2)C3)nc1` [Example 227, 6-(3-(2-(1-(pyridin-4-yl)cyclopropoxy)acetyl)-3,8-diazabicyclo[3.2.1]octan-8-yl)nicotinonitrile], 6.00 to 7.00.
On to `N#Cc1ccc(N2C3CCC2CN(C(=O)COC2(c4ccncc4F)CC2)C3)nc1` [Example 228, 6-(3-(2-(1-(3-fluoropyridin-4-yl)cyclopropoxy)acetyl)-3,8-diazabicyclo[3.2.1]octan-8-yl)nicotinonitrile], for which the negative logarithm of the IC50 (pIC50) is 7.00 to 8.00.
Turning to `N#Cc1ccc(N2C3CCC2CN(C(=O)COC2(c4cncc(F)c4)CC2)C3)nc1` [Example 229, 6-(3-(2-(1-(5-fluoropyridin-3-yl)cyclopropoxy)acetyl)-3,8-diazabicyclo[3.2.1]octan-8-yl)nicotinonitrile], the pIC50 was 6.00 to 7.00.
Turning to `COc1cncc(C2(OCC(=O)N3CC4CCC(C3)N4c3ccc(C#N)cn3)CC2)c1` [Example 230, 6-(3-(2-(1-(5-methoxypyridin-3-yl)cyclopropoxy)acetyl)-3,8-diazabicyclo[3.2.1]octan-8-yl)nicotinonitrile], the pIC50 was > 8.00.
Then `N#Cc1ccc(N2C3CCC2CN(C(=O)COC2(c4cccc5nccnc45)CC2)C3)nc1` [Example 231, 6-(3-(2-(1-(quinoxalin-5-yl)cyclopropoxy)acetyl)-3,8-diazabicyclo[3.2.1]octan-8-yl)nicotinonitrile], with 7.00 to 8.00; and `N#Cc1ccc(N2C3CCC2CN(C(=O)COCC2(c4cccc5ncnn45)CC2)C3)nc1` [Example 232, 6-(3-(2-((1-([1,2,4]triazolo[1,5-a]pyridin-5-yl)cyclopropyl)methoxy)acetyl)-3,8-diazabicyclo[3.2.1]octan-8-yl)nicotinonitrile], with > 8.00; and `COc1cncc(C2(OCC(=O)N3CC4CCC(C3)N4c3ccc(C#N)cn3)CCC2)c1` [Example 233, 6-(3-(2-(1-(5-methoxypyridin-3-yl)cyclobutoxy)acetyl)-3,8-diazabicyclo[3.2.1]octan-8-yl)nicotinonitrile], with > 8.00.
Consider `N#Cc1ccc(N2C3CCC2CN(C(=O)COC2(c4ccc(F)cc4)CCC2)C3)nc1` [Example 234, 6-(3-(2-(1-(4-fluorophenyl)cyclobutoxy)acetyl)-3,8-diazabicyclo[3.2.1]octan-8-yl)nicotinonitrile], for which the pIC50 was 7.00 to 8.00.
In the case of `N#Cc1ccc(N2C3CCC2CN(C(=O)COC2(c4cccc(F)c4)CCC2)C3)nc1` [Example 235, 6-(3-(2-(1-(3-fluorophenyl)cyclobutoxy)acetyl)-3,8-diazabicyclo[3.2.1]octan-8-yl)nicotinonitrile], the pIC50 is 7.00 to 8.00.
Then `N#Cc1ccc(N2C3CCC2CN(C(=O)COC2(c4ccccc4F)CCC2)C3)nc1` [Example 236, 6-(3-(2-(1-(2-fluorophenyl)cyclobutoxy)acetyl)-3,8-diazabicyclo[3.2.1]octan-8-yl)nicotinonitrile], with 6.00 to 7.00; and `COc1cccc(C2(OCC(=O)N3CC4CCC(C3)N4c3ccc(C#N)cn3)CCC2)c1` [Example 237, 6-(3-(2-(1-(3-methoxyphenyl)cyclobutoxy)acetyl)-3,8-diazabicyclo[3.2.1]octan-8-yl)nicotinonitrile], with > 8.00.
For the compound `N#Cc1ccc(N2C3CCC2CN(C(=O)COC2(c4cccc(OC(F)(F)F)c4)CCC2)C3)nc1` [Example 238, 6-(3-(2-(1-(3-(trifluoromethoxy)phenyl)cyclobutoxy)acetyl)-3,8-diazabicyclo[3.2.1]octan-8-yl)nicotinonitrile], the negative logarithm of the IC50 (pIC50) is 6.00 to 7.00.
Consider `N#Cc1ccc(N2C3CCC2CN(C(=O)COC2(c4ccc(F)cc4)COC2)C3)nc1` [Example 240, (3-(2-((3-(4-fluorophenyl)oxetan-3-yl)oxy)acetyl)-3,8-diazabicyclo[3.2.1]octan-8-yl)nicotinonitrile], for which the negative logarithm of the IC50 (pIC50) is 6.00 to 7.00.
As to `N#Cc1ccc(N2C3CCC2CN(C(=O)COC2(c4ccc(F)c(F)c4)COC2)C3)nc1` [Example 241, (3-(2-((3-(3,4-difluorophenyl)oxetan-3-yl)oxy)acetyl)-3,8-diazabicyclo[3.2.1]octan-8-yl)nicotinonitrile], the pIC50 is 5.00 to 6.00.
Regarding `COc1cccc(C2(OCC(=O)N3CC4CCC(C3)N4c3ccc(C#N)cn3)COC2)c1` [Example 242, (3-(2-((3-(3-methoxyphenyl)oxetan-3-yl)oxy)acetyl)-3,8-diazabicyclo[3.2.1]octan-8-yl)nicotinonitrile], the pIC50 is 7.00 to 8.00.
Regarding `COc1cncc(C2(OCC(=O)N3CC4CCC(C3)N4c3ccc(C#N)cn3)COC2)c1` [Example 243, 6-(3-(2-((3-(5-methoxypyridin-3-yl)oxetan-3-yl)oxy)acetyl)-3,8-diazabicyclo [3.2.1]octan-8-yl)nicotinonitrile], the pIC50 is 6.00 to 7.00.
As for `COc1cc(C2(OCC(=O)N3CC4CCC(C3)N4c3ccc(C#N)cn3)COC2)ccn1` [Example 244, 6-(3-(2-((3-(2-methoxypyridin-4-yl)oxetan-3-yl)oxy)acetyl)-3,8-diazabicyclo[3.2.1]octan-8-yl)nicotinonitrile], the negative-log IC50 (pIC50) was 5.00 to 6.00.
Take `N#Cc1ccc(N2C3CCC2CN(C(=O)COC2(c4cccnc4)CCC2)C3)nc1` [Example 245, 6-(3-(2-(1-(pyridin-3-yl)cyclobutoxy)acetyl)-3,8-diazabicyclo[3.2.1]octan-8-yl)nicotinonitrile]: the pIC50 was 6.00 to 7.00.
Consider `N#Cc1ccc(N2C3CCC2CN(C(=O)COC2(c4ccccn4)CCC2)C3)nc1` [Example 246, 6-(3-(2-(1-(pyridin-2-yl)cyclobutoxy)acetyl)-3,8-diazabicyclo[3.2.1]octan-8-yl)nicotinonitrile], for which the pIC50 was 5.00 to 6.00.
In the case of `N#Cc1ccc(N2C3CCC2CN(C(=O)COC2(c4ccncc4F)CCC2)C3)nc1` [Example 247, 6-(3-(2-(1-(3-fluoropyridin-4-yl)cyclobutoxy)acetyl)-3,8-diazabicyclo[3.2.1]octan-8-yl)nicotinonitrile] it was > 8.00; in that of `N#Cc1ccc(N2C3CCC2CN(C(=O)COC2(c4cc(F)ccn4)CCC2)C3)nc1` [Example 248, 6-(3-(2-(1-(4-fluoropyridin-2-yl)cyclobutoxy)acetyl)-3,8-diazabicyclo[3.2.1]octan-8-yl)nicotinonitrile], 6.00 to 7.00.
As to `N#Cc1ccc(N2C3CCC2CN(C(=O)COC2(c4ccc(F)cn4)CCC2)C3)nc1` [Example 249, 6-(3-(2-(1-(5-fluoropyridin-2-yl)cyclobutoxy)acetyl)-3,8-diazabicyclo[3.2.1]octan-8-yl)nicotinonitrile], the pIC50 is 7.00 to 8.00.

The pIC50 is the negative decadic logarithm of the IC50, by convention in mol/L.
